In ChEMBL document CHEMBL1201862, “PubChem BioAssay data set” (2004):
Active and inactive are the calls of the source.

Experiments:
[1] = NIH-3T3 fibroblast cytotoxicity, dose response, cytotoxicity control, cell-based, fluorescence, Alamar Blue, secondary assay (AID 2327); format: functional;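 also: NIH-3T3 mouse fibroblasts cultured with fluconazole at 8 µg/mL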
[2] = THP-1 cell cytotoxicity, dose response, cytotoxicity control for Vif-APOBEC3G degradation inhibitor project, THP-1 cells (AID 1117359); format: functional; conditions: Human immunodeficiency virus 1, THP-1
[3] = biological target: Luciferin 4-monooxygenase (Photinus pyralis, UniProt P08659); assay: Counter Screen for Luciferase-based Assay Positives. [Related pubchem assays: 620, 618, 411 ]
[4] = system: HT-1080; assay: cytotoxicity in HT1080 fibrosarcoma cells, cell-based, fluorescence readout (AID 620); format: functional; conditions: Homo sapiens
[5] = biological target: T1, Mannose-6-phosphate isomerase (Homo sapiens, UniProt P34949); assay: human PMI inhibitors, high substrate, primary screen, biochemical, fluorescence intensity, high mannose 6-phosphate (AID 1220)
T1 sequence (P34949 whole entry): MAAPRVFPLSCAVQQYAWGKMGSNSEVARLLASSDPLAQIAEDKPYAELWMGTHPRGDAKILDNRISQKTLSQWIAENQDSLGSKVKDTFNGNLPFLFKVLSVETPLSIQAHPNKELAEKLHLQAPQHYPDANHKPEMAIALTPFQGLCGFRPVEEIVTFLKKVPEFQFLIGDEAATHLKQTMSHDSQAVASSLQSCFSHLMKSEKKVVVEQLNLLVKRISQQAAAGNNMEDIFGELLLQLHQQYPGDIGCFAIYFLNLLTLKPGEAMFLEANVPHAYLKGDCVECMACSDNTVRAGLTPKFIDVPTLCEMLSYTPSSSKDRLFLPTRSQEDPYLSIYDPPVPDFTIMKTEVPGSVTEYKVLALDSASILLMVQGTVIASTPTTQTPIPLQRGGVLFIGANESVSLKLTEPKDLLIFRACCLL

[6] = THP-1 cell cytotoxicity, dose response, cytotoxicity control for non-replicating M. tuberculosis project (AID 489025); format: functional
[7] = biological target: T2, Short transient receptor potential channel 4 (Mus musculus, UniProt Q9QUQ5); assay: mouse TRPC4 channel inhibitors, dose response, cell-based, HEK293 TRPC4/mu-opioid, Fluo-4 calcium (AID 434942); format: functional;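 also: potency of inhibitors blocking the TRPC4 calcium response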
T2 sequence (Q9QUQ5 whole entry): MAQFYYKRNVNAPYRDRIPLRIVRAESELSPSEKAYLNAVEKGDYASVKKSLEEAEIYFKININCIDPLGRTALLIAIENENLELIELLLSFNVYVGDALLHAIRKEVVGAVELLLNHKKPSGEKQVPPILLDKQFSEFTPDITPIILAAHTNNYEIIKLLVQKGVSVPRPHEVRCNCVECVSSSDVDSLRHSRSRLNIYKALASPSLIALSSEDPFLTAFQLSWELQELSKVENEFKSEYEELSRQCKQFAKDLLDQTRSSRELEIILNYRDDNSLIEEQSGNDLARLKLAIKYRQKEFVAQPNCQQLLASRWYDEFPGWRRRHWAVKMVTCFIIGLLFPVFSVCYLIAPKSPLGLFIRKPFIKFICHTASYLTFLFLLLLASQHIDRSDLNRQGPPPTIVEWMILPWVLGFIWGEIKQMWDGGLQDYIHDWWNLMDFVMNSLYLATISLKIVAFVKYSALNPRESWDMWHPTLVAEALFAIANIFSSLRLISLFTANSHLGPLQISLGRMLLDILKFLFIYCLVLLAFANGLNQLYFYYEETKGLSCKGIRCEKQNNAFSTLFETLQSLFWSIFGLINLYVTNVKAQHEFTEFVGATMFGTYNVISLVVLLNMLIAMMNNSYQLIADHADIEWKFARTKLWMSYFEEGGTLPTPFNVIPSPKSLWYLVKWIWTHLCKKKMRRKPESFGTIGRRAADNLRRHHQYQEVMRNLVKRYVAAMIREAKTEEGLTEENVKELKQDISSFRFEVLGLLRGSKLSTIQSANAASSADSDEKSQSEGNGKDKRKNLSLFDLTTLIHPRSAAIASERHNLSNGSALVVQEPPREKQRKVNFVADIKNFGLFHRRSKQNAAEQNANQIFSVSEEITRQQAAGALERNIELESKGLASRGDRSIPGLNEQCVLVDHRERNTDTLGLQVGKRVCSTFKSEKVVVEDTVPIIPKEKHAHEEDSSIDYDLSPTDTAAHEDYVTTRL

[8] = biological target: T3, Protein skinhead-1 (Caenorhabditis elegans, UniProt P34707); format: functional
T3 sequence (P34707 whole entry): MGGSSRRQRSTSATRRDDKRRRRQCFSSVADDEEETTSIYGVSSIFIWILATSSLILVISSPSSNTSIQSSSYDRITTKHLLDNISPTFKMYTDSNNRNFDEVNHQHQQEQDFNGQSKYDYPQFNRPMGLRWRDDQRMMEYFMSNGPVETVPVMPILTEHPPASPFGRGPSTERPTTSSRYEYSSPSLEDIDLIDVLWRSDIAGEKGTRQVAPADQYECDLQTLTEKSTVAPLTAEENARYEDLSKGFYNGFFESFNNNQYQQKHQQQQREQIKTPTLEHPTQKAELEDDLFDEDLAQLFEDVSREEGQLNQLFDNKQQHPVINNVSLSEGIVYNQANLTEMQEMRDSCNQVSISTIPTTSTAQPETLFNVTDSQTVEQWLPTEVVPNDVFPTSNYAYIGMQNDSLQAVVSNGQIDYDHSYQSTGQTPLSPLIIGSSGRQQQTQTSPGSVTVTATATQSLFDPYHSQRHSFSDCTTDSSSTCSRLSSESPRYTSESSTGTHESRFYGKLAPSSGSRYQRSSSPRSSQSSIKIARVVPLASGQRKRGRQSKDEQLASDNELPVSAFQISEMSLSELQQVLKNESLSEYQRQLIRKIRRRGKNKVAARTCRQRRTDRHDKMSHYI

[9] = biological target: T4, Protein Tat (Human immunodeficiency virus type 1 group M subtype B (isolate HXB2)(HIV-1), UniProt P04608); format: functional;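 also: tat binding to TAR RNA read out by fluorescence polarization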
T4 sequence (P04608 whole entry): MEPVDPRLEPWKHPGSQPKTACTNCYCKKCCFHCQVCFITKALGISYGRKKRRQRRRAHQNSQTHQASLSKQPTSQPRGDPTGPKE

[10] = cells; format: functional
[11] = biological target: T5, Replicative DNA helicase DnaB (Mycobacterium tuberculosis, UniProt P9WMR3); assay: DnaB intein splicing inhibitors, dose response, biochemical, cell-free fluorescence (AID 449749); format: functional
T5 sequence (P9WMR3 whole entry): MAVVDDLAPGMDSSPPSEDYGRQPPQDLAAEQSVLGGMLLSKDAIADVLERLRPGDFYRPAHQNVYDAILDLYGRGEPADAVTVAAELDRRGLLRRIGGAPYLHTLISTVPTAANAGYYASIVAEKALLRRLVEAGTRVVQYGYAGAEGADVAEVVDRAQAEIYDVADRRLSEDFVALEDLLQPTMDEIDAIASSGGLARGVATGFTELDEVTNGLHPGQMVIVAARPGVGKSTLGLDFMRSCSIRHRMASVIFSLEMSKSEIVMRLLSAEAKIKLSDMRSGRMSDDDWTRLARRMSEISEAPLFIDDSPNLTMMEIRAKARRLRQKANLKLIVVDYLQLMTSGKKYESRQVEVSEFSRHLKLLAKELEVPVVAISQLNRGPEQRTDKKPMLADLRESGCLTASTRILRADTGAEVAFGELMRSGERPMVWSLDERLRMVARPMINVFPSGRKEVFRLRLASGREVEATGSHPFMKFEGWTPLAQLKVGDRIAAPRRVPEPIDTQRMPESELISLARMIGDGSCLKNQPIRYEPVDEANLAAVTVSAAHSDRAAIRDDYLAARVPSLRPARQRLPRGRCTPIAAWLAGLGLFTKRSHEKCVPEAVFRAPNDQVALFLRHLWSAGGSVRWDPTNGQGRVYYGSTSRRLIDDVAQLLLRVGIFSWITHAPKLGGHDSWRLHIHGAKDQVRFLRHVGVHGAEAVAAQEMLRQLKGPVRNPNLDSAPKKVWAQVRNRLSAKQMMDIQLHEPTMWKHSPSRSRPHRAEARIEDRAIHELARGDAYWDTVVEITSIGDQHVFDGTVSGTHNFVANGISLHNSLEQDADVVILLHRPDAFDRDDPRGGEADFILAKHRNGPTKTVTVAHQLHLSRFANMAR

[12] = biological target: T6, Protein RecA (Mycobacterium tuberculosis, UniProt P9WHJ3); assay: Fluorescence Cell-Free Homogeneous Dose Retest to Identify Inhibitors of RecA-Intein Splicing Activity. [Related pubchem assays (depositor defined):AID2097, AID2223, AID489010, AID492950]; format: functional
T6 sequence (P9WHJ3 whole entry): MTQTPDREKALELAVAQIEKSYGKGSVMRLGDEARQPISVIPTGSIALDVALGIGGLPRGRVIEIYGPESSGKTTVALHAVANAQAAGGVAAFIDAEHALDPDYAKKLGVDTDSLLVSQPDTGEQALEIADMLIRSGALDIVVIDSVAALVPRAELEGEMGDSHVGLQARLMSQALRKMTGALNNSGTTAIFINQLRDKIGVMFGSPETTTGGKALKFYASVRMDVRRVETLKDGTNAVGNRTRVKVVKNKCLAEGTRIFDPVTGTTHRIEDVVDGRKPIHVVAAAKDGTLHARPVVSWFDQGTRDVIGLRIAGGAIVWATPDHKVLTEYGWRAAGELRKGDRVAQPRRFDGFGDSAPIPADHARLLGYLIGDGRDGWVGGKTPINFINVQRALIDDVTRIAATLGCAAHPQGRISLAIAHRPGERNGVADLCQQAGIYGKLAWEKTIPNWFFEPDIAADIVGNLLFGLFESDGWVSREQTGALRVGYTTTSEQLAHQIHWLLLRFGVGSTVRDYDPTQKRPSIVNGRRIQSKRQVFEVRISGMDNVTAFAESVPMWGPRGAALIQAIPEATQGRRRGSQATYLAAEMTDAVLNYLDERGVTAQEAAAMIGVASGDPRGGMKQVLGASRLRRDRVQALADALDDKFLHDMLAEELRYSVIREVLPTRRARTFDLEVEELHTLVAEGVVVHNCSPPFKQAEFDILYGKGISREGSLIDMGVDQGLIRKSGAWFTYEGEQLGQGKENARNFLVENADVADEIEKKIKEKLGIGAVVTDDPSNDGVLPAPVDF

[13] = biological target: T7, Sentrin-specific protease 8 (Homo sapiens, UniProt Q96LD8); format: functional
T7 sequence (Q96LD8 whole entry): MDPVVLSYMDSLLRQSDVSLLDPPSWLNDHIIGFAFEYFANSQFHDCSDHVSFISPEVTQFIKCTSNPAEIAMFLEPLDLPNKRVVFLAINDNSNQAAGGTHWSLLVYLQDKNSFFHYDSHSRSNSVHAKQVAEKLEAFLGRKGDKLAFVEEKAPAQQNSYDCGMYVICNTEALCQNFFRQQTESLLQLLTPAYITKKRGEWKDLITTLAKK

[14] = biological target: T7, Sentrin-specific protease 8; format: functional; remark: listed apart in the source
[15] = biological target: Large T antigen (Simian virus 40, UniProt P03070); format: functional, Betapolyomavirus macacae;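 also: Confirmatory-stage PubChem screen for compounds that inhibit SV40 T antigen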
[16] = biological target: DNA dC->dU-editing enzyme APOBEC-3G (Homo sapiens, UniProt Q9HC16); assay: Dose Response confirmation of small molecule APOBEC3G DNA Deaminase Inhibitors via a fluorescence-based single-stranded DNA deaminase assay. [Related pubchem assays (depositor defined):AID493012, AID493028]; format: functional
[17] = biological target: T8, Heat shock factor protein 1 (Mus musculus, UniProt P38532); assay: HSF1 potentiators in luciferase reporter cells, confirmation, cell-based, NIH3T3, luminescence, dose retest (AID 435004); format: functional;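 also: stress induced by proteasome inhibitor MG132 added 30 min after compound; luciferase reporter driven by HSF1 response element in NIH3T3 cells; actives raise luminescence as potentiators of the MG132 stress response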
T8 sequence (P38532 whole entry): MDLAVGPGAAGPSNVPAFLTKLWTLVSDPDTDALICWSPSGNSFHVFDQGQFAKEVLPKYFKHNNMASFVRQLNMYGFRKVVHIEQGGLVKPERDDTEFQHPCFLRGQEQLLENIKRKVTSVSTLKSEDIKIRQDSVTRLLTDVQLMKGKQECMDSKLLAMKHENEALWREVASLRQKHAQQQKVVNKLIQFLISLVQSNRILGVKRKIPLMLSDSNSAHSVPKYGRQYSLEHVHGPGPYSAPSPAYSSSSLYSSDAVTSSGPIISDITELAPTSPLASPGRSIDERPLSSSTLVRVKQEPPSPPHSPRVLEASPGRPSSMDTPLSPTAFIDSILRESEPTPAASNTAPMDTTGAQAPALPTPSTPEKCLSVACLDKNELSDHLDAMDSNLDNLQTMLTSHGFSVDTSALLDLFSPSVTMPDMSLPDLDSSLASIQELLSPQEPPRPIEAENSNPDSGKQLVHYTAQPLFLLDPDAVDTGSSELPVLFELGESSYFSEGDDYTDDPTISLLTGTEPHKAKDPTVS

Sequence of Luciferin 4-monooxygenase (P08659 whole entry): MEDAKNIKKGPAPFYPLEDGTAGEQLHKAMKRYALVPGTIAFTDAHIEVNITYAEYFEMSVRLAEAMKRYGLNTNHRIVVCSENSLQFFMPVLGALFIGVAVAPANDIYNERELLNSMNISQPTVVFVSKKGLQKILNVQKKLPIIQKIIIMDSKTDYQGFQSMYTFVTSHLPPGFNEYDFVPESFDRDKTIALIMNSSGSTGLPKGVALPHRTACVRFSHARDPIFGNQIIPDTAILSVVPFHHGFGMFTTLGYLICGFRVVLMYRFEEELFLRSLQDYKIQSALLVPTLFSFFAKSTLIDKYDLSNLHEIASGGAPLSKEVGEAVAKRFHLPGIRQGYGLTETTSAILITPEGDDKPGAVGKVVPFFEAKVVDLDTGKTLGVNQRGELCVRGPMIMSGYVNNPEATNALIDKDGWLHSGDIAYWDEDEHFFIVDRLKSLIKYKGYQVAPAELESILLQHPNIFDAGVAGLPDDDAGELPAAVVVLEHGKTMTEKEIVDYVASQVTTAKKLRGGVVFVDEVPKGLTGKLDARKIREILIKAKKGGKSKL
Sequence of DNA dC->dU-editing enzyme APOBEC-3G (Q9HC16 whole entry): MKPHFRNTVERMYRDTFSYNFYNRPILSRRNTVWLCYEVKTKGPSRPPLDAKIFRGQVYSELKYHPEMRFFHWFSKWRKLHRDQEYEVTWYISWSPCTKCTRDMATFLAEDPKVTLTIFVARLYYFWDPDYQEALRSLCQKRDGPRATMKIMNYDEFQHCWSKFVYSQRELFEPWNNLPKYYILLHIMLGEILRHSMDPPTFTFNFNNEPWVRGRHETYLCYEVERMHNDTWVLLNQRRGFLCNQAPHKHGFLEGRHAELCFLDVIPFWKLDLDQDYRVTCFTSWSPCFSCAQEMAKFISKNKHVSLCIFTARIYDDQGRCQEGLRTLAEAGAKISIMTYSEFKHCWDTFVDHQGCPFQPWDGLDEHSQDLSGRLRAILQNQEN
Sequence of Large T antigen (P03070 whole entry): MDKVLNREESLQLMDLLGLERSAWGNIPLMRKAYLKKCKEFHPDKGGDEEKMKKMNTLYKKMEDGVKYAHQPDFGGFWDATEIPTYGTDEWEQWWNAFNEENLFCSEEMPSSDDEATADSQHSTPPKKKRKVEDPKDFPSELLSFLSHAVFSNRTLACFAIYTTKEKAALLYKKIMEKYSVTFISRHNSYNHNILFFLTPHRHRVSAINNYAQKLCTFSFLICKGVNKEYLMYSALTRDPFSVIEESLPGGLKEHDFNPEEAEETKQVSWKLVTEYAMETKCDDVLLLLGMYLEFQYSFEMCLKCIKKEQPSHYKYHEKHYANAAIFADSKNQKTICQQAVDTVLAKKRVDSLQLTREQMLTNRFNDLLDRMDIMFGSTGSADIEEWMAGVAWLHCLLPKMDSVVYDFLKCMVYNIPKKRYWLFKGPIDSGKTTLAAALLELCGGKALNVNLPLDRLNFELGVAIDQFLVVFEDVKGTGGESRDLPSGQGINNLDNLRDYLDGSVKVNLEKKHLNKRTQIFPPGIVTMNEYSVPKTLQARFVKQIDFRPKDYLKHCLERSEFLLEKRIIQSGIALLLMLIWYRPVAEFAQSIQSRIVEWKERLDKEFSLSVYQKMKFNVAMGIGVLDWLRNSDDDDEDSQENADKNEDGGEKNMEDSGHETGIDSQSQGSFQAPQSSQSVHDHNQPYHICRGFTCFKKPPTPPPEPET

## C=CCN(CC=C)S(=O)(=O)c1ccc(C(=O)Nc2nnc(COC)o2)cc1
[1]
  EC50: 63.3 µM (active)
[2]
  CC50: 15.4 µM (active)

## COc1cccc(C(=O)NCCC2=CCCCC2)c1
[3]
  EC50: < 0.2 µM (active)
[4]
  EC50: > 50 µM (not active)

## O=C(CNc1ccc2ccccc2c1)N/N=C/c1ccc(C(=O)O)cc1
[5]
  IC50: > 50 µM (not active)

## COc1cc(CNC2CCCC2)cc(Cl)c1OCc1ccc(F)cc1
[6]
  CC50: 19.8 µM (active)
[7]
  EC50: 6.68 µM (active)
[8]
  IC50: 3.33 µM (active)

## CNC(=O)[C@@H]1C[C@H]1[C@@H](NC(=O)OCc1ccccc1)c1ccccc1
[9]
  IC50: > 100 µM (active)
[2]
  CC50: > 40 µM (active)

## COc1ccc(C2=Nc3ccccc3OC2)cc1
[3]
  EC50: < 0.2 µM (active)
[4]
  EC50: > 50 µM (not active)
[10]
  IC50: 3.76 µM (active)

## O=C1CC(c2ccccc2)=NN1c1ccc([N+](=O)[O-])cc1
[11]
  AC50: 5.46 µM (active)
[12]
  EC50: 4.05 µM (active)
[13]
  IC50: 33.2 µM (active)
[14]
  IC50: 52.3 µM (active)

## CSS(=O)(=O)c1cccc2cccnc12
[15]
  IC50: 65.2 µM (active)
[16]
  IC50: 9.66 µM (active)
[17]
  EC50: 19.1 µM (active)

## CCOC(=O)N1CCN(c2cc(NCCO)c([N+](=O)[O-])c3nonc23)CC1
[5]
  IC50: > 50 µM (not active)
